We go through 17 molecules from ChEMBL document CHEMBL5149974, “Antimicrobial drugs bearing guanidine moieties: A review” (Eur J Med Chem, 2021).

≈ marks a conversion by molar mass, not a printed value.

Assay [1] deals with Mycolicibacterium smegmatis. The assay is described as follows: Potentiation of cefotaxime-induced antibacterial activity against Mycobacterium smegmatis assessed as cefotaxime MIC incubated for 48 hrs by alamar blue assay (reference value: 64 ug/ml). The format is functional.
Assay [2] deals with Mycobacterium tuberculosis. The assay is described as follows: Anti-mycobacterial activity against Mycobacterium tuberculosis H37Rv assessed as bacterial growth inhibition incubated for 7 days by REMA assay. To be noted: 168 h, time 7 day. Format: functional.
For assay [3], the system named is Escherichia coli. The experiment in a line: Antibacterial activity against Escherichia coli assessed as bacterial growth inhibition incubated for 18 to 24 hrs by broth microdilution assay. To be noted: time 18-24 hrs. The format is functional. For orientation: Dilution methods test growth across graded concentrations, often in twofold steps.
The test system of assay [4] is Staphylococcus aureus. The experiment in a line: Antibacterial activity against Staphylococcus aureus assessed as bacterial growth inhibition incubated for 18 to 24 hrs by broth microdilution assay. The format is functional. Conditions: time 18-24 hrs.
The test system of assay [5] is Staphylococcus aureus. The experiment in a line: Antibacterial activity against methicillin-resistant Staphylococcus aureus ATCC 33591 assessed as bacterial growth inhibition by CLSI based broth microdilution method. The format is functional.
In assay [6] the test system is Mycobacterium tuberculosis. The experiment in a line: Anti-mycobacterial activity against Mycobacterium tuberculosis H37Rv ATCC […] assessed as bacterial growth inhibition by alamar blue assay. The format is functional. A general note: The colour change of resazurin is a common sign of viable cells or microbes.
The subject of assay [7] is Escherichia coli. The assay is described as follows: Antibacterial activity against Escherichia coli assessed as bacterial growth inhibition incubated for 24 hrs. The format is functional.
The test system of assay [8] is Escherichia coli. The assay is described as follows: Antibacterial activity against Escherichia coli assessed as bacterial growth inhibition. Format: functional.
For the next assay, the system named is Enterococcus faecalis. The assay is described as follows: Antibacterial activity against vancomycin-resistant Enterococcus faecalis assessed as bacterial growth inhibition. Format: functional.
In the next assay the test system is Klebsiella pneumoniae. The assay is described as follows: Antibacterial activity against Klebsiella pneumoniae assessed as bacterial growth inhibition. The format is functional.
The test system of assay [9] is Staphylococcus epidermidis. The experiment in a line: Antibacterial activity against methicillin-resistant Staphylococcus epidermidis assessed as bacterial growth inhibition. The format is functional.
A further assay has as its system Pseudomonas aeruginosa. The assay is described as follows: Antibacterial activity against Pseudomonas aeruginosa assessed as bacterial growth inhibition. The format is functional.
Assay [10] deals with Staphylococcus aureus. The experiment in a line: Antibacterial activity against methicillin-resistant Staphylococcus aureus assessed as bacterial growth inhibition. The format is functional.
For the next assay, the system named is Clostridioides difficile. The assay is described as follows: Antibacterial activity against Clostridium difficile assessed as bacterial growth inhibition incubated for 24 hrs. The format is functional.
The subject of assay [11] is Staphylococcus aureus. The assay is described as follows: Antibacterial activity against Staphylococcus aureus assessed as bacterial growth inhibition incubated for 24 hrs. The format is functional.
Assay [12] in a line: Inhibition of Mycobacterium smegmatis biofilm fromation incubated for 48 hrs by crystal violet staining based analysis. The format is functional, Mycolicibacterium smegmatis.
Another assay relates to Plasmodium falciparum. The experiment in a line: Antiplasmodial activity against Plasmodium falciparum. Format: functional, organism-based.
Assay [13] concerns Mycobacterium tuberculosis. The assay is described as follows: Potentiation of isoniazid-induced antimycobacterial activity against Mycobacterium tuberculosis H37Rv assessed as reduction in isoniazid MIC at 250 uM incubated for 48 hrs by alamar blue staining based analysis. Format: functional.
The subject of assay [14] is Mycobacterium tuberculosis. The experiment in a line: Potentiation of isoniazid-induced antimycobacterial activity against Mycobacterium tuberculosis H37Rv assessed as reduction in isoniazid MIC at 125 uM incubated for 48 hrs by alamar blue staining based analysis. The format is functional.
In assay [15] the test system is Nakaseomyces glabratus. The assay is described as follows: Synergistic antifungal activity against Candida glabrata assessed as fractional inhibitory concentration index in presence of voriconazole incubated for 18 hrs by checkerboard assay. Format: functional.
Assay [16] concerns Nakaseomyces glabratus. The assay is described as follows: Synergistic antifungal activity against Candida glabrata assessed as fractional inhibitory concentration index in presence of fluconazole incubated for 18 hrs by checkerboard assay. The format is functional.
Assay [17] concerns Nakaseomyces glabratus. The experiment in a line: Synergistic antifungal activity against Candida glabrata assessed as fractional inhibitory concentration index in presence of amphotericin incubated for 18 hrs by checkerboard assay. The format is functional.
In assay [18] the test system is Mycobacterium tuberculosis. The assay is described as follows: Anti-mycobacterial activity against Mycobacterium tuberculosis H37Rv assessed as growth inhibition incubated for 48 hrs by alamar blue staining based analysis. Format: functional.

By MIC is commonly meant the lowest concentration found to suppress growth. Regarding `CCCCCCCC(NC(=O)CCCc1c[nH]c(N)n1)c1ccccc1` (stereo unspecified), the MIC in [1] was 2 µg/mL.

With `COc1ccc(C2C(C(C)=O)=C(C)Nc3nc(N)[nH]c(=O)c32)cc1OC` (stereo unspecified), the MIC in assay [2] amounted to 1.95 µg/mL (≈ 5.47 µM).

For `N=C(N)NCCNC(=O)[C@H](Cc1c[nH]c2ccccc12)NC(=O)c1cc(Br)ccc1NC(=O)c1ccc2ccccc2c1`, the MIC with Escherichia coli [3] is 15.6 µM (≈ 9.99 µg/mL); in the assay with Staphylococcus aureus [4], 2 µM (≈ 1.28 µg/mL).

With `N=C(N)NC[C@H]1OC(O[C@@H]2[C@@H](O)[C@H](O[C@H]3O[C@H](CN)[C@@H](O)[C@H](O)[C@H]3O)[C@@H](N)C[C@H]2N)[C@H](O)[C@@H](N)[C@@H]1O` (stereo partly specified), in the assay on Staphylococcus aureus [5], the MIC is 3.12 µg/mL (≈ 5.95 µM).

For `Cc1nn(-c2ccccc2)c(Cl)c1-c1nc(N)nc2c1c(C)nn2-c1ccccc1Cl`, the minimum inhibitory concentration (MIC) in [6] amounted to 1.2 µg/mL (≈ 2.66 µM).

With `COC(=O)C(CCCCNC(=N)N)NC(=O)C(=O)c1cc(Br)ccc1NC(=O)c1ccc2ccccc2c1.Cl` (stereo unspecified), the MIC in the assay on Escherichia coli [7] stood at 19 µg/mL.

On to `CCCCCCN1C(=N)N(CC(=O)Nc2cccc(NC(=O)CN3C[C@H](Cc4ccccc4)N(CCCCCC)C3=N)c2)C[C@@H]1Cc1ccccc1`, for which the MIC is 0.75 µg/mL (≈ 1.06 µM) with Escherichia coli [8]; 0.75 µg/mL (≈ 1.06 µM) with Enterococcus faecalis; 0.75 µg/mL (≈ 1.06 µM) in the assay with Klebsiella pneumoniae; 0.75 µg/mL (≈ 1.06 µM) in assay [9]; 4 µg/mL (≈ 5.66 µM) with Pseudomonas aeruginosa; 0.16 µg/mL (≈ 0.226 µM) in the assay on Staphylococcus aureus [10]. Further, the minimal inhibitory concentration (MIC) with Clostridioides difficile stood at 1 µg/mL (≈ 1.41 µM).

As for `COC(=O)C(CCCNC(=N)N)NC(=O)C(CCCCNC(=N)N)NC(=O)C(=O)c1cc(Br)ccc1NC(=O)c1ccc2ccccc2c1.Cl.Cl` (stereo unspecified), in the assay on Staphylococcus aureus [11], the MIC came out at 10 µg/mL.

As usually defined, the IC50 is the point on the concentration scale where inhibition reaches its midpoint. In turn, `CCCCCOc1ccc(-c2nc(N)[nH]c2C(F)(F)F)cc1` had a half-maximal inhibitory concentration (IC50) in assay [12] of less than 10 µM.

In the assay on Plasmodium falciparum, `CCC/C=C\CCC[C@@H]1C2N=C(N)N[C@H]3CC[C@@H](C[C@H]1CCC)C23` (stereo partly specified) came in with an IC50 of 8.37 µM.

As for `N=C(N)NCCNC(=O)[C@H](Cc1c[nH]c2ccccc12)NC(=O)c1cc(F)ccc1NC(=O)c1ccc2ccccc2c1`, the MIC in the assay with Staphylococcus aureus [4] amounted to 2 µM (≈ 1.16 µg/mL).

Molecule `CCCCCCc1ccc(-c2nc(N)[nH]c2C(F)(F)F)cc1` yielded a half-inhibitory concentration (IC50) in assay [12] of less than 10 µM.

As to `CCCCCCC(CCCCCC)NC(=O)CCCc1c[nH]c(N)n1`, the MIC in assay [13] and in assay [14] was 0.039 µg/mL each time.

For `CCCCNC(=N)NC(=N)N` [BUFORMIN], the “fractional inhibitory concentration index (FICI)” value in the assay with Nakaseomyces glabratus [15], in the assay with Nakaseomyces glabratus [16] and with Nakaseomyces glabratus [17] was 0.5 throughout.

Regarding `NNC(=O)c1ccncc1` [ISONIAZID], in [18], the MIC was found to be 0.625 µg/mL (≈ 4.56 µM).

For `CN(C)C(=N)NC(=N)N` [METFORMIN], the “fractional inhibitory concentration index (FICI)” value with Nakaseomyces glabratus [15], in the assay on Nakaseomyces glabratus [16] and in the assay on Nakaseomyces glabratus [17] was 0.5 each time.

Turning to `N=C(N)NC(=N)NCCc1ccccc1` [PHENFORMIN], the “fractional inhibitory concentration index (FICI)” value in the assay on Nakaseomyces glabratus [15], in the assay on Nakaseomyces glabratus [16] and in the assay on Nakaseomyces glabratus [17] was 0.5 throughout.
